Reference: patent US20240116910A1, “Heterocycles as WIP1 Inhibitors” (PMV Pharmaceuticals, Inc., priority 2022, published 2024)
pIC50: −log10 of the molar value.

Tests used:
[1] = target: recombinant His-tag Wip1 full length protein (amino acids #1-605) (Homo sapiens (Human), UniProt O15297); assay: Wip1 full length phosphatase enzyme FDP assay; type: biochemical; details: fluorescein diphosphate (FDP) substrate, RT 2 hours, fluorescence Ex485/Em535
Experimental: The Human Wip1 (2-420, aa 2-420) or Wip1 full length (aa 1-605) DNA sequence was codon optimized and synthesized by Genscript for insect cell expression. The open reading frame of Wip1(2-420) with a N-terminal-His6 affinity tag followed by a TEV cleavage site was subcloned sites into the pFastBac1 expression vector. The recombinant bacmid DNA was transfected in Sf9 insect cells for baculovirus production. After 72 hours infection, the Sf9 cells were harvested by centrifugation and resuspended in lysis buffer containing 50 mM Tris/HCl, pH 8.0, 500 mM NaCl, 20% glycerol, Benzonase 0.5% CHAPS and Roche cOmplete™ EDTA free protease inhibitors. Cells were disrupted with microfluidizer and the debris was removed by centrifugation at 185,000 g for 1 hour. The supernatant was subjected to HisTrap FF for affinity purification. Proteins were eluted with a linear gradient of 0-500 mM imidazole in HisTrap buffer containing 50 mM Tris/HCl, pH 8.0, 500 mM NaCl and 20% glycerol, 0.05% CHAPS. The eluted protein was dialyzed against dialysis buffer (20 mM MES, 100 mM NaCl, 20% glycerol, 0.5 mM TCEP, 0.05% CHAPS) followed purification via HiTrap SP HP column. The protein was eluted with a gradient of 100 mM-2 M NaCl in dialysis buffer. His6-[…] was finally concentrated and loaded onto a size-exclusion column (NiLoad 16/600 Superdex 200 pg, GE Healthcare) pre-equilibrated with 50 mM MOPS (pH 7.5), 200 mM NaCl, 20% glycerol, 1 mM TCEP, 0.05% CHAPS and 0.1 mM EGTA. The peak fractions containing purified Nis6-Wip1(2-420) were pooled and concentrated to 1.0 mg/mL and flash frozen at −80° C.
Wip1 Length and Wip1(2-420) Phosphatase Enzyme FDP Assays.
Test compounds (252 mM stock in DMSO) were diluted 3 folds in series in DMSO and 1.2 μl per well were added into 384-well polypropylene black plates (Nunc). Twelve μl per well of Assay Buffer (100 mM NaCl, 50 mM MOPS, pH 7.5, 0.8 mM CHAPS, 0.1 mM EGTA, 30 mM MgCl2, 0.3 mM TCEP, 0.2 mg/mL BSA) was added followed by […] per well of 50.4 nM recombinant His-tag Wip1 full length protein (amino acids #1-605) or recombinant His-tag Wip1(2-420) protein (amino acids #2-420) in Assay Buffer and the plate was incubated at RT (22° C.) for 5 min. Ten mM of fluorescein diphosphate (FDP) in DMSO was diluted to […] in Assay Buffer and […] per well was added to the plate and incubated at RT (22° C.) for 2 hours. […] per well of 64.1 mM EDTA in water were added to stop the enzyme reaction. The plate was centrifuged at 1,200 rpm (Eppendorf 5810R Plate centrifuge) for 1 minute and fluorescence intensity (Ex485/Em535) was measured on Perkin Elmer Victor Reader. EC50 values were calculated using either Prism (GraphPad) or ActivityBase software (IDBS), The IC50 results are provided in Table M.

[2] = target: recombinant His-tag Wip1(2-420) protein (amino acids #2-420) (Homo sapiens (Human), UniProt O15297); assay: Wip1(2-420) phosphatase enzyme FDP assay; type: biochemical; details: fluorescein diphosphate (FDP) substrate, RT 2 hours, fluorescence Ex485/Em535; read-out: WIP1 (Truncated 2-420) FDP Assay: IC50
Sequence of recombinant His-tag Wip1(2-420) protein (amino acids #2-420) (O15297 2-420): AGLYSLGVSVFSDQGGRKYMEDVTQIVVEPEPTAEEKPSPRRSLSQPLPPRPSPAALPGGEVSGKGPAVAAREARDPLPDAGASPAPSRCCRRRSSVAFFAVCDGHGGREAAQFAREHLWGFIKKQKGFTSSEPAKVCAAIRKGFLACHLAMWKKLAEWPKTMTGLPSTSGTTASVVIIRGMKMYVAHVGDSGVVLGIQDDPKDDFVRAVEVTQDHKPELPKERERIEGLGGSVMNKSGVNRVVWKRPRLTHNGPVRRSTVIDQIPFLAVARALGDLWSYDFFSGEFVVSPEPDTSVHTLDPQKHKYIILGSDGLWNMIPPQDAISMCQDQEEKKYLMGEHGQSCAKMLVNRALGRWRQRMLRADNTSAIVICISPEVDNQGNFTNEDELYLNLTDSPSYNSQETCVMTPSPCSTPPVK

Sequence of recombinant His-tag Wip1 full length protein (amino acids #1-605) (O15297 whole entry, the tested form may be a part): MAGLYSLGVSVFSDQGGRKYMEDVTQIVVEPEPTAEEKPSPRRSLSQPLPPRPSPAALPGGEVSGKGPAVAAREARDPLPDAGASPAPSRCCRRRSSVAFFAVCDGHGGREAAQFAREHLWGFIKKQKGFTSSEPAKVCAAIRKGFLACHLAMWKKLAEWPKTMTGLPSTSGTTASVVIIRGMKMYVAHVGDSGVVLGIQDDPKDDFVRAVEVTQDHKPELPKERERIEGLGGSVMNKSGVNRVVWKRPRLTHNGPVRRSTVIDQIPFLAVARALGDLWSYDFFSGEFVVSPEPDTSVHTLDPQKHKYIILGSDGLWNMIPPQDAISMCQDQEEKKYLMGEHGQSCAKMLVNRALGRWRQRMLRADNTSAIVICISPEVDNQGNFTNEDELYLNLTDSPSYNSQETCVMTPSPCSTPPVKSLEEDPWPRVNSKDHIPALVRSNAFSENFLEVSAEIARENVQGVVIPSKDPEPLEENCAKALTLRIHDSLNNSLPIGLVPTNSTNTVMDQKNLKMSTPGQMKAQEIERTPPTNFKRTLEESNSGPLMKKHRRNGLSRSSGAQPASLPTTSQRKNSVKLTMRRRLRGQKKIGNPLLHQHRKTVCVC

Row | Structure (SMILES) | pIC50 [1] | pIC50 [2]
1 | Cc1ncc(Cl)cc1N[C@@H](C)c1ccc(C(=O)N[C@@H](CC2CCCC2)C(=O)NC23CC(C#N)(C2)C3)s1 [Compound 31, (2S)-2-({5-[(1S)-1-[(5-chloro-2-methylpyridin-3-yl)amino]ethyl]thiophen-2-yl}formamido)-N-{3-cyanobicyclo[1.1.1]pentan-1-yl}-3-cyclopentylpropanamide] | 7.80 | 8.00
2 | COc1ncc(Cl)cc1N[C@H](C)c1ccc(C(=O)N[C@@H](CC2CCCC2)C(=O)N[C@@H]2CC2(F)F)s1 [Compound 36, (2S)-2-({5-[(1R)-1-[(5-chloro-2-methoxypyridin-3-yl)amino]ethyl]thiophen-2-yl}formamido)-3-cyclopentyl-N-[(1R)-2,2-difluorocyclopropyl]propanamide] | 8.00 | 8.10
3 | CCn1cc(NC(=O)[C@H](CC2CCCC2)NC(=O)c2ccc([C@H](C)Nc3cc(Cl)cnc3C)s2)cn1 [Compound 162, (2S)-2-({5-[(1S)-1-[(5-chloro-2-methylpyridin-3-yl)amino]ethyl]thiophen-2-yl}formamido)-3-cyclopentyl-N-(1-ethyl-1H-pyrazol-4-yl)propanamide] | 8.10 | 8.22
4 | COc1ncc(Cl)cc1N[C@@H](C)c1ccc(C(=O)N[C@@H](CC2CCCC2)C(=O)NC2CC2)s1 [Compound 38, (2S)-2-({5-[(1S)-1-[(5-chloro-2-methoxypyridin-3-yl)amino]ethyl]thiophen-2-yl}formamido)-3-cyclopentyl-N-cyclopropylpropanamide] | 8.05 | 8.15
5 | CC(Nc1ccc(F)c(Cl)c1)c1ccc(C(=O)N[C@@H](CC2CCCC2)C(=O)NC2CC2)s1 (stereo partly drawn) [Compound 3, 5-[1-(3-chloro-4-fluoro-anilino)ethyl]-N-[(1S)-1-(cyclopentylmethyl)-2-(cyclopropylamino)-2-oxo-ethyl]thiophene-2-carboxamide] | 7.55 | 7.22
6 | COc1ncc(Cl)cc1N[C@@H](C)c1ccc(C(=O)N[C@@H](CC2CCCC2)C(=O)N[C@@H]2CC2(F)F)s1 [Compound 40, (2S)-2-({5-[(1S)-1-[(5-chloro-2-methoxypyridin-3-yl)amino]ethyl]thiophen-2-yl}formamido)-3-cyclopentyl-N-[(1R)-2,2-difluorocyclopropyl]propanamide] | 6.74 | 6.83
7 | O=C(N[C@@H](CC1CCCCC1)C(=O)NC1CC1)c1cnc(CN2CCc3ccc(C(F)(F)F)cc32)s1 [Compound 306, N-[(1S)-1-(cyclohexylmethyl)-2-(cyclopropylamino)-2-oxo-ethyl]-2-[[6-(trifluoromethyl)indolin-1-yl]methyl]thiazole-5-carboxamide] | 7.42 | 7.08
8 | Cc1ncc(Cl)cc1N[C@@H](C)c1ccc(C(=O)N[C@@H](CC2CCCC2)C(=O)NC23CC(C2)C3)s1 [Compound 11, (2S)-N-{bicyclo[1.1.1]pentan-1-yl}-2-({5-[(1S)-1-[(5-chloro-2-methylpyridin-3-yl)amino]ethyl]thiophen-2-yl}formamido)-3-cyclopentylpropanamide] | 8.05 | 8.22
9 | Cc1ncc(Cl)cc1N[C@@H](C)c1ccc(C(=O)N[C@@H](CC2CCCC2)C(=O)NC23CC(C)(C2)C3)s1 [Compound 17, (2S)-2-({5-[(1S)-1-[(5-chloro-2-methylpyridin-3-yl)amino]ethyl]thiophen-2-yl}formamido)-3-cyclopentyl-N-{3-methylbicyclo[1.1.1]pentan-1-yl}propanamide] | 8.22 | 8.15
10 | COc1ncc(Cl)cc1N[C@@H](C)c1ccc(C(=O)N[C@@H](CC2CCCC2)C(=O)NC23CC(C2)C3)s1 [Compound 60, (2S)-N-{bicyclo[1.1.1]pentan-1-yl}-2-({5-[(1S)-1-[(5-chloro-2-methoxypyridin-3-yl)amino]ethyl]thiophen-2-yl}formamido)-3-cyclopentylpropanamide] | 8.15 | 8.22
11 | Cc1ncc(Cl)cc1N[C@@H](C)c1ccc(C(=O)N[C@@H](CC2CCCC2)C(=O)NC2CCN(C)CC2)s1 [Compound 32, (2S)-2-({5-[(1S)-1-[(5-chloro-2-methylpyridin-3-yl)amino]ethyl]thiophen-2-yl}formamido)-3-cyclopentyl-N-(1-methylpiperidin-4-yl)propanamide] | 7.14 | 7.32
12 | COc1ncc(Cl)cc1N[C@@H](C)c1ccc(C(=O)N[C@@H](CC2CCCC2)C(=O)NC23CC(C#N)(C2)C3)s1 [Compound 82, (2S)-2-({5-[(1S)-1-[(5-chloro-2-methoxypyridin-3-yl)amino]ethyl]thiophen-2-yl}formamido)-N-{3-cyanobicyclo[1.1.1]pentan-1-yl}-3-cyclopentylpropanamide] | 7.70 | 7.89
13 | COc1cc(NC(=O)[C@H](CC2CCCC2)NC(=O)c2ccc([C@H](C)Nc3cc(Cl)cnc3C)s2)ccc1F [Compound 69, (2S)-2-({5-[(1S)-1-[(5-chloro-2-methylpyridin-3-yl)amino]ethyl]thiophen-2-yl}formamido)-3-cyclopentyl-N-(4-fluoro-3-methoxyphenyl)propanamide] | 8.15 | 8.40
14 | Cc1ncc(Cl)cc1N[C@@H](C)c1ncc(C(=O)N[C@@H](CC2CCCC2)C(=O)NC23CC(C2)C3)s1 [Compound 278, (2S)-N-{bicyclo[1.1.1]pentan-1-yl}-2-({2-[(1S)-1-[(5-chloro-2-methylpyridin-3-yl)amino]ethyl]-1,3-thiazol-5-yl}formamido)-3-cyclopentylpropanamide] | 7.52 | 7.72
15 | Cc1cc(NC(=O)[C@H](CC2CCCC2)NC(=O)c2cnc(C(C)Nc3cccc(Cl)c3)s2)cc(C)n1 (stereo partly drawn) [Compound 122, (2S)-2-[(2-{1-[(3-chlorophenyl)amino]ethyl}-1,3-thiazol-5-yl)formamido]-3-cyclopentyl-N-(2,6-dimethylpyridin-4-yl)propanamide] | 7.21 | 6.89
16 | CC[C@H](Nc1cc(Cl)cnc1C)c1ccc(C(=O)N[C@@H](CC2CCCC2)C(=O)NC23CC(C#N)(C2)C3)s1 [Compound 80, (2S)-2-({5-[(1S)-1-[(5-chloro-2-methylpyridin-3-yl)amino]propyl]thiophen-2-yl}formamido)-N-{3-cyanobicyclo[1.1.1]pentan-1-yl}-3-cyclopentylpropanamide] | 7.74 | 8.00
17 | CN(Cc1ncc(C(=O)N[C@@H](CC2CCCCC2)C(=O)Nc2ccncc2)s1)c1cncc(Cl)c1 [Compound 287, 2-[[(5-chloro-3-pyridyl)-methyl-amino]methyl]-N-[(1S)-1-(cyclohexylmethyl)-2-oxo-2-(4-pyridylamino)ethyl]thiazole-5-carboxamide] | 7.85 | 8.22
18 | Cc1ncc(Cl)cc1N[C@@H](C)c1ccc(C(=O)N[C@@H](CC2CCCC2)C(=O)NC2CCC(F)(F)C2)s1 (stereo partly drawn) [Compound 26, (2S)-2-({5-[(1S)-1-[(5-chloro-2-methylpyridin-3-yl)amino]ethyl]thiophen-2-yl}formamido)-3-cyclopentyl-N-(3,3-difluorocyclopentyl)propanamide] | 8.05 | 8.15
19 | CC[C@@H](Nc1cc(Cl)cnc1C)c1ccc(C(=O)N[C@@H](CC2CCCC2)C(=O)N[C@H]2CC2(F)F)s1 [Compound 51, (2S)-2-({5-[(1R)-1-[(5-chloro-2-methylpyridin-3-yl)amino]propyl]thiophen-2-yl}formamido)-3-cyclopentyl-N-[(1S)-2,2-difluorocyclopropyl]propanamide] | 6.95 | 7.13
